Experiment [1] concerns the target T1, dopamine (DA) reuptake sites (Rattus norvegicus, UniProt P23977).
T1 construct: Striatal tissue from the brains of male Charles River rats weighing 150-250 g; from tissue; host or cells: rat brain striatum (crude synaptosomes in A1, washed membranes in A4)
Nature of the experiment: displacement of [3H]GBR 12935 from dopamine reuptake sites, striatal membranes. To be noted: 10^-6 M test compound, [3H]GBR 12935 1 nM, one test only; for inhibition at 1 µM: read-out: DA uptake (% displacement of specific binding of tritiated ligand). It counts as binding. As for the experimental part:
Striatal tissue from the brains of male Charles River rats weighing 150-250 g was homogenised in ice-cold 0.32M sucrose (1:80 w/v) using a motor driven teflon pestle (12 strokes, 800 rpm) and centrifuged at 1000 g for 12 minutes. The supernatant was stored on ice and the pellet was resuspended in 0.32M sucrose (1:80 w/v) and centrifuged at 850 g for 10 minutes. Combined supernatants were diluted to 1:320 w/v with ice-cold 50 mM Tris-HCl, pH 7.4 (at 25° C.) containing 200 mM sodium chloride and 5 mM potassium chloride (Tris buffer) and centrifuged at 40,000 g for 10 minutes. The resulting pellet was resuspended in 10 ml of 50 mM Tris buffer, incubated at 37° C. for 10 min, diluted in 50 mM Tris buffer (1:320 w/v) and recentrifuged at 40,000 g for 10 minutes. The final pellet was resuspended in 50 mM Tris buffer (equivalent to 1.25 mg wet weight of tissue/ml) and used immediately in the binding assay. All centrifugations were carried out at 4° C.
Membranes (800 μl; equivalent to 1 mg wet weight of tissue/tube) were incubated with 100 μl [^3 H]GBR 12935 at a single concentration of 1 nM and 100 μl of distilled water (total binding) or 100 μl of test compound (10^-6 M) or 100 μl of mazindol (1 μM; non-specific binding) for 90 min at 4° C.
Membrane bound radioactivity was recovered by filtration under vacuum through Whatman GF/C filters, pre-soaked for 1 h in 0.5% polyethylenimine,using a Brandel cell harvester. Filters were rapidly washed with 16 ml of ice-cold 50 mM Tris-HCl, pH 7.4 and radioactivity determined by liquid scintillation counting (2 ml Packard MV Gold scintillator).
(§1) For each of these tests measuring the ability of compounds of Formula I to displace standard ligands from dopamine (DA), 5-hydroxytryptamine (5-HT) and noradrenaline (NA) reuptake sites in vitro, the percentage displacement of specific binding of tritiated ligand by 10^-6 M test compound was calculated in the following way:
(§2) Firstly, specific binding of tritiated ligand in the absence (A) and presence (B) of test compound was determined:
(§3) In the absence of compound:
(§4) A (dpm)=Total binding (dpm)-Non-specific binding (dpm)
(§5) In the presence of compound (10^-6 M):
(§6) B (dpm)=Binding at 10^-6 M (dpm)-Non-specific binding (dpm)
(§7) The specific binding of tritiated ligand in the presence (B) of compound was then converted to a percentage of specific binding of tritiated ligand in the absence (A) of compound:
(§8) % Specific binding at 10^-6 M=B (dpm)/A(dpm)×100
(§9) The percentage displacement of specific binding of trtiated ligand by the test compound (10^-6 M) was then obtained by subtraction of the percentage specific binding in the presence of compound from the percentage specific binding in the absence of compound, which is taken as the maximum binding and so equals 100%:
(§10) % Displacement at 10^-6 M=100-% Specific binding at 10^-6 M.
(§11) The values given below in Table 2 for examples 6 to 76 are % displacement of specific binding of tritiated ligand by 10^-6 M test compound and represent results from one test only. IA refers to <50% displacement.
For orientation: Loss of bound radioactivity is the signal in a displacement assay; it reports binding, not function.

Experiment [2] deals with T2, noradrenaline (NA) reuptake sites (Rattus norvegicus, UniProt Q63380).
T2 construct: Frontal cortical tissue from the brains of male Sprague-Dawley rats; from tissue; host or cells: rat brain frontal cortex (crude synaptosomes in A3, washed membranes in A6)
T2 sequence (Q63380 1-617): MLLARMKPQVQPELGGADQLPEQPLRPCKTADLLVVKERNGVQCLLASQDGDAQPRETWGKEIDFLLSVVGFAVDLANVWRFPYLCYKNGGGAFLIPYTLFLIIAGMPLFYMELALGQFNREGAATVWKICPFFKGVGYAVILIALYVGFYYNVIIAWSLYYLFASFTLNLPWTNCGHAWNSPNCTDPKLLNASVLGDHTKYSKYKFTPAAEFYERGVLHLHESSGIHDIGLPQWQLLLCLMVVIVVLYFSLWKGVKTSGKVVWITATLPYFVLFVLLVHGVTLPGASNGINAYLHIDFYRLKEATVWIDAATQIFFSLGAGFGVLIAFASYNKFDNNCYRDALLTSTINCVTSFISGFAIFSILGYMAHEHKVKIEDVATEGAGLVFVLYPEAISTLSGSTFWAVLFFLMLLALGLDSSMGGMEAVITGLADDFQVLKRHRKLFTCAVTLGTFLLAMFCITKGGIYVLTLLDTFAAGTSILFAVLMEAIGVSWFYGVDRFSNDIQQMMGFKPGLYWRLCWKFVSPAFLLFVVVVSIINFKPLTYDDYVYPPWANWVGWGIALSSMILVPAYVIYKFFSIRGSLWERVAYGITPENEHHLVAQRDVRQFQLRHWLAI
Briefly: displacement of [3H]nisoxetine from noradrenaline reuptake sites, frontal cortical membranes. To be noted: 10^-6 M test compound, [3H]nisoxetine 0.6 nM, one test only, read-out: NA uptake (% displacement of specific binding of tritiated ligand). As for the experimental part:
Frontal cortical tissue from the brains of male Charles River rats weighing 150-250 g was homogenised in ice-cold 50 mM Tris-HCl, pH 7.4 (at 25° C.) containing 120 mM sodium chloride and 5 mM potassium chloride (Tris buffer; 1:60 w/v) using a Kinematic polytron (speed setting 6 for 30 seconds) and centrifuged at 40,000 g for 10 minutes. The supernatant was discarded and the pellet rehomogenised in Tris buffer, 1:60 w/v, and centrifuged at 40,000 g for 10 minutes. This step was repeated twice more so that, in total, the brain tissue was homogenised and centrifuged four times. The final pellet was resuspended in 50 mM Tris-HCl, pH 7.4 containing 300 mM sodium chloride and 5 mM potassium chloride (equivalent to 25 mg wet weight of tissue/ml) and used immediately in the binding assay. All centrifugations were performed at 4° C.
Membranes (400 μl; equivalent to 10 mg wet weight of tissue/tube) were incubated with 50 μl [^3 H]nisoxetine at a single concentration of 0.6 nM and 50 μl of distilled water (total binding) or 50 μl of test compound (10^-6 M) or 50 μl of mazindol (1 μM; non-specific binding) for 4 h at 4° C.
Membrane bound radioactivity was recovered by filtration under vacuum through Skatron 11734 filters using a Skatron cell harvester. Filters were rapidly washed with ice-cold 50 mM Tris-HCl, pH 7.4 containing 120 mM sodium chloride and 5 mM potassium chloride (wash setting 9,9,0) and radioactivity determined by liquid scintillation counting (1 ml Packard MV Gold scintillator).
as §1, §2, §3, §4, §5, §6, §7, §8, §9, §10, §11

Experiment [3] concerns the target T3, 5-hydroxytryptamine (5-HT) reuptake sites (Rattus norvegicus, UniProt P31652).
T3 construct: Frontal cortical tissue from the brains of male Sprague-Dawley rats; from tissue; host or cells: rat brain frontal cortex (crude synaptosomes in A2, washed membranes in A5)
Nature of the experiment: displacement of [3H]paroxetine from 5-HT reuptake sites, frontal cortical membranes. It is filed as binding. Particulars: 10^-6 M test compound, [3H]paroxetine 30 pM, one test only; for inhibition at 1 µM: read-out: 5-HT uptake (% displacement of specific binding of tritiated ligand). On the procedure:
Frontal cortical tissue from the brains of male Charles River rats weighing 150-250 g was homogenised in ice-cold 0.25M sucrose (1:30 w/v) using a Kinematic polytron (speed setting 6 for 30 seconds) and centrifuged at 1000 g for 12 minutes. The supernatant was stored on ice and the pellet was resuspended in 0.25M sucrose (1:20 w/v) and centrifuged at 850 g for 10 minutes. Combined supernatants were diluted to 1:100 w/v with ice-cold 50 mM Tris-HCl, pH 7.5 (at 25° C.) containing 120 mM sodium chloride and 5 mM potassium chloride (Tris buffer) and centrifuged at 40,000 g for 10 minutes. The resulting pellet was resuspended in 50 mM Tris buffer (1:100 w/v) and recentrifuged at 40,000 g for 10 minutes. The final pellet was resuspended in 50 mM Tris buffer (equivalent to 2 mg wet weight of tissue/ml) and used immediately in the binding assay. All centrifugations were carried out at 4° C.
Membranes (1000 μl; equivalent to 2 mg wet weight of tissue/tube) were incubated with 200 μl [^3 H]paroxetine at a single concentration of 30 pM and 200 μl of distilled water (total binding) or 200 μl of test compound (10^-6 M) or 200 μl of citalopram (1 μM; non-specific binding) for 2 h at 22° C.
Membrane bound radioactivity was recovered by filtration under vacuum through Whatman GFIC filters using a Brandel cell harvester. Filters were rapidly washed with 16 ml ice-cold 50 mM Tris buffer and radioactivity determined by liquid scintillation counting (2 ml Packard MV Gold scintillator).
as §1, §2, §3, §4, §5, §6, §7, §8, §9, §10, §11

The values below come from patent US6187802A, “Substituted 4-arylmethylene-2-imino-2,3-dihydrothiazoles and derivatives and their pharmaceutical use” (Knoll Aktiengesellschaft, priority 1997, dated 2001).

Structures are written as SMILES. Where a name gives a salt, the structure may show the parent alone.

T3 sequence (P31652 whole entry): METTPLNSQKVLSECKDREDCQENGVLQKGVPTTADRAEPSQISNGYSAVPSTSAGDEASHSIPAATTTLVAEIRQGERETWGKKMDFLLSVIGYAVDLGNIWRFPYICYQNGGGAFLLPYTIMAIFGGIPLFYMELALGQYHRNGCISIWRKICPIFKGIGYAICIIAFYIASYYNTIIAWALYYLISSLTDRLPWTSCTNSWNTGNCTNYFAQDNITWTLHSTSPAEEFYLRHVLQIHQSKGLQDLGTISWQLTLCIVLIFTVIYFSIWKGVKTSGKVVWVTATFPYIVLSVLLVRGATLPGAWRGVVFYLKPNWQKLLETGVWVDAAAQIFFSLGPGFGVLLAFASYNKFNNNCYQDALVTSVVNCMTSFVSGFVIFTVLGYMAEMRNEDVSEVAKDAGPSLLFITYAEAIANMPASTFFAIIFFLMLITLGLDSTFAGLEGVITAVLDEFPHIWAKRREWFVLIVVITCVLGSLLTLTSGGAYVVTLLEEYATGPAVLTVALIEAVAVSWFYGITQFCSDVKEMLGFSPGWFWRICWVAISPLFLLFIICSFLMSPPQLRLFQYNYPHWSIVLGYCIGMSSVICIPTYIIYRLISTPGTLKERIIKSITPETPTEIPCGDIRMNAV
T1 sequence (P23977 whole entry): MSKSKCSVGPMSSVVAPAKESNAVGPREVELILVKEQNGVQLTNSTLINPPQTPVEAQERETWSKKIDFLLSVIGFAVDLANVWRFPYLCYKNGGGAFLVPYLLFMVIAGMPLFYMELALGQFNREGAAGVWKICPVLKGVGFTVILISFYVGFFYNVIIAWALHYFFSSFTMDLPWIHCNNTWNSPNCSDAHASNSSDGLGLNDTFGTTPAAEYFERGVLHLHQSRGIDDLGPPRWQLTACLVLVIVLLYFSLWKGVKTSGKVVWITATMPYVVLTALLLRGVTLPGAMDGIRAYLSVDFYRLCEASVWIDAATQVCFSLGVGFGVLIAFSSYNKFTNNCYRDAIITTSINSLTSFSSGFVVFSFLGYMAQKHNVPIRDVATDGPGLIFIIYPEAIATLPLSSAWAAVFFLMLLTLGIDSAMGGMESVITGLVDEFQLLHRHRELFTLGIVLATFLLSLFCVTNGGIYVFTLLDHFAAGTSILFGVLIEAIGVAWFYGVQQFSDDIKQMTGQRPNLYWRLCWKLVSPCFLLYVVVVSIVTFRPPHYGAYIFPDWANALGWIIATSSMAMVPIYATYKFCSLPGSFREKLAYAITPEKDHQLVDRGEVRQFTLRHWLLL

Regarding `C=CCN=c1scc(C2(c3ccc(Cl)c(Cl)c3)CCC2)n1CC=C` [Example 20, 3-Allyl-2-allylimino-4-[1-(3,4-dichlorophenyl)cyclobutyl]-2,3-dihydrothiazole hydrobromide], the inhibition at 1 µM in experiment [1] turned out to be 105%; in experiment [2], 91%; in experiment [3], 104%.

For `Clc1ccc(C2(c3csc(=NCc4ccccc4)n3Cc3ccccc3)CCC2)cc1Cl` [Example 22, 3-Benzyl-2-benzylimino-4-[1-(3,4-dichlorophenyl)cyclobutyl]-2,3-dihydrothiazole hydrobromide], the figures for the inhibition at 1 µM in experiment [1], in experiment [2] and in experiment [3] were 79%, less than 50% and less than 50%, respectively.

Regarding `COc1ccc(CCN=c2scc(C3(c4ccc(Cl)cc4)CCC3)n2CCc2ccc(OC)c(OC)c2)cc1OC` [Example 65, 4-[1-(4-Chlorophenyl)cyclobutyl]-3-(3,4-dimethoxyphenethyl)-2-(3,4-dimethoxyphenethylimino)-2,3dihydrothiazole hydrobromide], the inhibition at 1 µM in experiment [1] is 54%; in experiment [2], less than 50%; in experiment [3] it was less than 50%.

As for `c1coc(CN=c2scc(C3(c4ccc5ccccc5c4)CCC3)n2Cc2ccco2)c1` [Example 48, 3-Furfuryl-2-furfurylimino-4-[1-(2-naphthyl)cyclobutyl]-2,3-dihydrothiazolehydrobromide], the inhibition at 1 µM is 101% in experiment [1], less than 50% in experiment [2] and 94% in experiment [3].

For `CCCCN=c1scc(C2(c3ccccc3)CCCCC2)n1CCCC` [Example 61, 3-Butyl-2-butylimino-4-(1-phenylcyclohexyl)-2,3-dihydrothiazole hydrobromide], the inhibition at 1 µM in experiment [1] was 68%; in experiment [2], less than 50%; in experiment [3], less than 50%.

Take `C1=C(C2(c3cc4ccccc4s3)CCC2)N2CCN=C2S1` [Example 12, 3-[1-(benzo[b]thiophen-2-yl)cyclobutyl]-5,6-dihydroimidazo[2,1-b]thiazole hydrobromide]: the values for the inhibition at 1 µM in experiment [1], in experiment [2] and in experiment [3] were 121%, 95% and 77%, respectively.

Consider `CC(C)CN=c1scc(C2(c3ccc(Cl)c(Cl)c3)CCC2)n1CC(C)C` [Example 19, 4-[1-(3,4-Dichlorophenyl)cyclobutyl]-3-isobutyl-2-isobutylimino-2,3-dihydrothiazole hydrobromide], for which the inhibition at 1 µM is 107% in experiment [1], less than 50% in experiment [2] and 89% in experiment [3].

`CCCCN=c1scc(C(C)(C)c2ccc(Cl)cc2)n1CCCC` [Example 62, 3-Butyl-2-butylimino-4-[1-(4-chlorophenyl)-1-methylethyl]-2,3-dihydrothiazole hydrobromide]: the values for the inhibition at 1 µM in experiment [1], in experiment [2] and in experiment [3] were 55%, less than 50% and less than 50%, respectively.

Take `c1ccc2cc(C3(c4csc(=NC5CCCC5)n4C4CCCC4)CCC3)ccc2c1` [Example 53, 3-Cyclopentyl-2-cyclopentylimino-4-[1-(2-naphthyl)cyclobutyl]-2,3-dihydrothiazole hydrobromide]: the inhibition at 1 µM in experiment [1] was 80%; in experiment [2] it was less than 50%; in experiment [3] it was 71%.

With `Clc1ccc(C2(C3=CSC4=NCCN34)CCCC2)cc1Cl` [Example 6, 3-[1-(3,4-dichlorophenyl)cyclopentyl]-5,6-dihydroimidazo[2,1-b]thiazole hydrobromide], the inhibition at 1 µM in experiment [1] was 112%; in experiment [2], 101%; in experiment [3] it was 86%.

As for `CCN=c1scc(C2(c3ccc(Cl)c(Cl)c3)CCC2)n1CC` [Example 15, 4-[1-(3,4-Dichlorophenyl)cyclobutyl]-3-ethyl-2-ethylimino-2,3-dihydrothiazole hydrobromide], the figures for the inhibition at 1 µM in experiment [1], in experiment [2] and in experiment [3] were 115%, 99% and 102%, respectively.

As to `COCCC1=C(C2(c3ccc(Cl)c(Cl)c3)CCC2)N2CCN=C2S1` [Example 8, 3-[1-(3,4-dichlorophenyl)cyclobutyl]-2-(2-methoxyethyl)-5,6-dihydroimidazo[2,1-b]-thiazole hydrobromide], the inhibition at 1 µM in experiment [1] is less than 50%; in experiment [2] it was less than 50%; in experiment [3], 62%.

On to `CCCCN=c1scc(C2(c3ccc(Cl)c(Cl)c3)CCC2)n1CCCC` [Example 18, 3-Butyl-2-butylimino-4-[1-(3,4-dichlorophenyl)cyclobutyl]-2,3-dihydrothiazole hydrobromide], for which the figures for the inhibition at 1 µM in experiment [1], in experiment [2] and in experiment [3] were 106%, 63% and 95%, respectively.

As for `Br.CC(C)(C1=CSC2=NCCN12)c1ccc(Cl)c(Cl)c1` [Example 74, 3-[1-(3,4-Dichlorophenyl)-1-methylethyl]-5,6-dihydroimidazo[2,1-b]thiazole hydrobromide], the “DA uptake (% displacement of specific binding of tritiated ligand)” value in experiment [1] (hydrobromide, 1 µM) is reported as 97%. For the same compound, the “5-HT uptake (% displacement of specific binding of tritiated ligand)” value in experiment [3] (1 µM, hydrobromide) amounted to 52%.
